Q: Which melting point does the source give for `Cc1nc2c(N)nc3ccccc3c2n1CCOCCS(C)(=O)=O` [Example 1, 2-Methyl-1-{2-[2-(methylsulfonyl)ethoxy]ethyl}-1H-imidazo[4,5-c]quinolin-4-amine] here?
A: 214 to 217 °C

Q: For `CCCCc1nc2c(N)nc3ccccc3c2n1CCOCCS(C)(=O)=O` [Example 2, 2-Butyl-1-{2-[2-(methylsulfonyl)ethoxy]ethyl}-1H-imidazo[4,5-c]quinolin-4-amine], which melting point is on record?
A: 168 to 170 °C

Q: With `CS(=O)(=O)CCOCCn1cnc2c(N)nc3ccccc3c21` [Example 3, 1-{2-[2-(Methylsulfonyl)ethoxy]ethyl}-1H-imidazo[4,5-c]quinolin-4-amine] as the compound, how does the melting point read?
A: 145 to 148 °C

Q: With `CCCc1nc2c(N)nc3ccccc3c2n1CCOCCS(C)(=O)=O` [Example 4, 1-{2-[2-(Methylsulfonyl)ethoxy]ethyl}-2-propyl-1H-imidazo[4,5-c]quinolin-4-amine] as the compound, how does the melting point read?
A: 150 to 152 °C

Q: Which melting point does the source give for `CCc1nc2c(N)nc3ccccc3c2n1CCOCCS(C)(=O)=O` [Example 5, 2-Ethyl-1-{2-[2-(methylsulfonyl)ethoxy]ethyl}-1H-imidazo[4,5-c]quinolin-4-amine] here?
A: 160 to 163 °C

Q: With `CCOCc1nc2c(N)nc3ccccc3c2n1CCOCCS(C)(=O)=O` [Example 6, 2-(Ethoxymethyl)-1-{2-[2-(methylsulfonyl)ethoxy]ethyl}-1H-imidazo[4,5-c]quinolin-4-amine] as the compound, how does the melting point read?
A: 158 to 160 °C

Q: With `COCCc1nc2c(N)nc3ccccc3c2n1CCOCCS(C)(=O)=O` [Example 7, 2-(2-Methoxyethyl)-1-{2-[2-(methylsulfonyl)ethoxy]ethyl}-1H-imidazo[4,5-c]quinolin-4-amine] as the compound, how does the melting point read?
A: 142 to 144 °C

Q: For `CCOCc1nc2c(N)nc3ccccc3c2n1CC(C)(C)OCCS(=O)(=O)c1ccccc1` [Example 8, 2-Ethoxymethyl-1-{2-[2-(phenylsulfonyl)ethoxy]-2-methylpropyl}-1H-imidazo[4,5-c]quinolin-4-amine], which melting point is on record?
A: 187 to 189 °C

Q: For `CCOCc1nc2c(N)nc3ccccc3c2n1CC(C)(C)OCCS(C)(=O)=O` [Example 9, 2-Ethoxymethyl-1-{2-[2-(methylsulfonyl)ethoxy]-2-methylpropyl}-1H-imidazo[4,5-c]quinolin-4-amine], which melting point is on record?
A: 183 to 185 °C

Q: With `Cc1nc2c(N)nc3c(c2n1CCOCCS(C)(=O)=O)CCCC3` [Example 10, 1-{2-[2-(Methylsulfonyl)ethoxy]ethyl}-2-methyl-6,7,8,9-tetrahydro-1H-imidazo[4,5-c]quinolin-4-amine] as the compound, how does the melting point read?
A: 173 to 175 °C

Q: With `CCCc1nc2c(N)nc3c(c2n1CCOCCS(C)(=O)=O)CCCC3` [Example 11, 1-{2-[2-(Methylsulfonyl)ethoxy]ethyl}-2-propyl-6,7,8,9-tetrahydro-1H-imidazo[4,5-c]quinolin-4-amine] as the compound, how does the melting point read?
A: 153 to 155 °C

Q: Which melting point does the source give for `CCc1nc2c(N)nc3c(c2n1CCOCCS(C)(=O)=O)CCCC3` [Example 12, 2-Ethyl-1-{2-[2-(methylsulfonyl)ethoxy]ethyl}-6,7,8,9-tetrahydro-1H-imidazo[4,5-c]quinolin-4-amine] here?
A: 146 to 148 °C

Q: With `CCCc1nc2c(N)nc3ccccc3c2n1CCOCCCS(=O)(=O)c1ccccc1` [Example 13, 1-{2-[3-(Phenylsulfonyl)propoxy]ethyl}-2-propyl-1H-imidazo[4,5-c]quinolin-4-amine] as the compound, how does the melting point read?
A: 160 to 161 °C

Q: With `CCCc1nc2c(N)nc3ccccc3c2n1CCOCCCS(=O)(=O)C(C)C` [Example 14, 1-(2-{3-[(1-Methylethyl)sulfonyl]propoxy}ethyl)-2-propyl-1H-imidazo[4,5-c]quinolin-4-amine] as the compound, how does the melting point read?
A: 176 to 177 °C

Q: For `CCCc1nc2c(N)nc3ccccc3c2n1CCOCCCS(=O)(=O)c1ccccc1C` [Example 15, 1-(2-{3-[(2-Methylphenyl)sulfonyl]propoxy}ethyl)-2-propyl-1H-imidazo[4,5-c]quinolin-4-amine], which melting point is on record?
A: 159 to 160 °C

Q: With `CCCc1nc2c(N)nc3ccccc3c2n1CCOCCCS(=O)(=O)c1ccccn1` [Example 16, 2-Propyl-1-(2-{3-[(pyridin-2-yl)sulfonyl]propoxy}ethyl)-1H-imidazo[4,5-c]quinolin-4-amine] as the compound, how does the melting point read?
A: 150 to 151 °C

Q: With `CCCc1nc2c(N)nc3ccccc3c2n1CCOCCCSC` [Example 17, 1-{2-[3-(Methylthio)propoxy]ethyl}-2-propyl-1H-imidazo[4,5-c]quinolin-4-amine] as the compound, how does the melting point read?
A: 99 to 101 °C

Q: Which melting point does the source give for `CCCc1nc2c(N)nc3ccccc3c2n1CCOCCC[S+](C)[O-]` (centres unmarked) [Example 18] here?
A: 148 to 151 °C

Q: With `CCCc1nc2c(N)nc3ccccc3c2n1CCOCCCS(C)(=O)=O` [Example 19, 1-{2-[3-(Methylsulfonyl)propoxy]ethyl}-2-propyl-1H-imidazo[4,5-c]quinolin-4-amine] as the compound, how does the melting point read?
A: 149 to 151 °C

Q: For `CCCCCCCCCCS(=O)(=O)CCCOCCn1c(CCC)nc2c(N)nc3ccccc3c21` [Example 20, 1-{2-[3-(Decane-1-sulfonyl)propoxy]ethyl}-2-propyl-1H-imidazo[4,5-c]quinolin-4-amine], which melting point is on record?
A: 84 to 86 °C

Q: Which melting point does the source give for `Cc1nc2c(N)nc3ccccc3c2n1CC(C)(C)OCCS(C)(=O)=O` [Example 21, 2-Methyl-1-{2-methyl-2-[2-(methylsulfonyl)ethoxy]propyl}-1H-imidazo[4,5-c]quinolin-4-amine] here?
A: 253 to 255 °C

Q: Which melting point does the source give for `CCCc1nc2c(N)nc3ccccc3c2n1CC(C)(C)OCCS(C)(=O)=O` [Example 22, 1-{2-Methyl-2-[2-(methylsulfonyl)ethoxy]propyl}-2-propyl-1H-imidazo[4,5-c]quinolin-4-amine] here?
A: 203 to 206 °C

Q: For `CCOCc1nc2c(N)nc3ccccc3c2n1CC1(OCCS(C)(=O)=O)CCCC1` [Example 23, 2-(Ethoxymethyl)-1-({1-[2-(methylsulfonyl)ethoxy]cyclopentyl}methyl)-1H-imidazo[4,5-c]quinolin-4-amine], which melting point is on record?
A: 163 to 165 °C

Q: With `CCOCc1nc2c(N)nc3ccccc3c2n1CC1(OCCS(C)(=O)=O)CCCCC1` [Example 24, 2-(Ethoxymethyl)-1-({1-[2-(methylsulfonyl)ethoxy]cyclohexyl}methyl)-1H-imidazo[4,5-c]quinolin-4-amine] as the compound, how does the melting point read?
A: 159 to 161 °C

Q: Which melting point does the source give for `CCCCCCc1nc2c(N)nc3ccccc3c2n1CCOCCS(C)(=O)=O` [Example 25, 2-Hexyl-1-{2-[2-(methylsulfonyl)ethoxy]ethyl}-1H-imidazo[4,5-c]quinolin-4-amine] here?
A: 158 to 160 °C

Q: Which melting point does the source give for `CCOCc1nc2c(N)nc3ccccc3c2n1CC1(OCCS(C)(=O)=O)CCC1` [Example 26, 2-(Ethoxymethyl)-1-({1-[2-(methylsulfonyl)ethoxy]cyclobutyl}methyl)-1H-imidazo[4,5-c]quinolin-4-amine] here?
A: 221 to 223 °C

Q: With `CCOCc1nc2c(N)nc3c(c2n1CC1(OCCS(C)(=O)=O)CCC1)CCCC3` [Example 27, 2-(Ethoxymethyl)-1-({1-[2-(methylsulfonyl)ethoxy]cyclobutyl}methyl)-6,7,8,9-tetrahydro-1H-imidazo[4,5-c]quinolin-4-amine] as the compound, how does the melting point read?
A: 186 to 188 °C

Q: Which melting point does the source give for `CCOCc1nc2c(N)nc3c(c2n1CC(C)(C)OCCS(C)(=O)=O)CCCC3` [Example 28, 2-(Ethoxymethyl)-1-{2-methyl-2-[2-(methylsulfonyl)ethoxy]propyl}-6,7,8,9-tetrahydro-1H-imidazo[4,5-c]quinolin-4-amine] here?
A: 150 to 153 °C

Q: For `CC(C)(Cn1cnc2c(N)nc3ccccc3c21)OCCS(C)(=O)=O` [Example 29, 1-{2-Methyl-2-[2-(methylsulfonyl)ethoxy]propyl}-1H-imidazo[4,5-c]quinolin-4-amine], which melting point is on record?
A: 261 to 264 °C

Q: Which melting point does the source give for `Cc1nc2c(N)nc3c(c2n1CC(C)(C)OCCS(C)(=O)=O)CCCC3` [Example 30, 2-Methyl-1-{2-methyl-2-[2-(methylsulfonyl)ethoxy]propyl}-6,7,8,9-tetrahydro-1H-imidazo[4,5-c]quinolin-4-amine] here?
A: 226 to 229 °C

Q: With `CC(C)(Cn1cnc2c(N)nc3c(c21)CCCC3)OCCS(C)(=O)=O` [Example 31, 1-{2-Methyl-2-[2-(methylsulfonyl)ethoxy]propyl}-6,7,8,9-tetrahydro-1H-imidazo[4,5-c]quinolin-4-amine] as the compound, how does the melting point read?
A: 219 to 223 °C

Q: Which melting point does the source give for `CCCCc1nc2c(N)nc3ccccc3c2n1CC(C)(C)OCCS(C)(=O)=O` [Example 32, 2-Butyl-1-{2-methyl-2-[2-(methylsulfonyl)ethoxy]propyl}-1H-imidazo[4,5-c]quinolin-4-amine] here?
A: 196 to 198 °C

Q: Which melting point does the source give for `CCCCc1nc2c(N)nc3c(c2n1CC(C)(C)OCCS(C)(=O)=O)CCCC3` [Example 33, 2-Butyl-1-{2-methyl-2-[2-(methylsulfonyl)ethoxy]propyl}-6,7,8,9-tetrahydro-1H-imidazo[4,5-c]quinolin-4-amine] here?
A: 146 to 148 °C

Q: With `CCOCc1nc2c(N)nc3ccccc3c2n1CC1(OCCS(C)(=O)=O)CC1` [Example 34, 2-(Ethoxymethyl)-1-({1-[2-(methylsulfonyl)ethoxy]cyclopropyl}methyl)-1H-imidazo[4,5-c]quinolin-4-amine] as the compound, how does the melting point read?
A: 169 to 171 °C

Q: Which melting point does the source give for `CCCc1nc2c(N)nc3c(c2n1CC(C)(C)OCCS(C)(=O)=O)CCCC3` [Example 35, 1-{2-Methyl-2-[2-(methylsulfonyl)ethoxy]propyl}-2-propyl-6,7,8,9-tetrahydro-1H-imidazo[4,5-c]quinolin-4-amine] here?
A: 188 to 190 °C

Q: With `CCc1nc2c(N)nc3ccccc3c2n1CC(C)(C)OCCS(C)(=O)=O` [Example 36, 2-Ethyl-1-{2-methyl-2-[2-(methylsulfonyl)ethoxy]propyl}-1H-imidazo[4,5-c]quinolin-4-amine] as the compound, how does the melting point read?
A: 206 to 209 °C

Q: With `CCc1nc2c(N)nc3c(c2n1CC(C)(C)OCCS(C)(=O)=O)CCCC3` [Example 37, 2-Ethyl-1-{2-methyl-2-[2-(methylsulfonyl)ethoxy]propyl}-6,7,8,9-tetrahydro-1H-imidazo[4,5-c]quinolin-4-amine] as the compound, how does the melting point read?
A: 225 to 227 °C

Q: Which melting point does the source give for `COCc1nc2c(N)nc3ccccc3c2n1CC(C)(C)OCCS(C)(=O)=O` [Example 38, 2-(Methoxymethyl)-1-{2-methyl-2-[2-(methylsulfonyl)ethoxy]propyl}-1H-imidazo[4,5-c]quinolin-4-amine] here?
A: 186 to 189 °C
